Results from patent USRE38132E1, “Phenylpyrrolidines, phenylimidazolidines,3-phenyl-1,3-oxizolidines and 3-phenyl-1,3-thiazolidines and their use in the treatment of inflammatory disease” (Boehringer Ingelheim Pharmaceuticals, Inc., priority 1997, dated 2003).
Where two headings read alike, the source gives them in different places.

Tests used:
[1] = tested on: SKW3 cells
[2] = molecular target: T1, interaction of ICAM-1 with the Leukointegrin CD18/CD11a (LFA-1) (Homo sapiens, UniProt P05107+P20701); assay: Assay to determine inhibition of LFA-1 binding to ICAM-1 (immunopurified LFA-1 on plate-bound sICAM-1, ELISA readout)
T1 construct: endogenous in cells; sICAM-1: made in house, secreted from transfected CHO DUX cells

[3] = tested on: cell bound form of LFA-1 (CD18, CD11a) with ICAM-1, SKW3 cells; assay: Inhibition of SKW3 cell binding to ICAM-1 (PMA-stimulated); type: cell-based, human; settings: read-out: Assay to Detect SKW3 Cells Binding to ICAM IC50
From the text: (§1) Assay to Determine Inhibition of SKW3 cell binding to ICAM-1 vs. Binding to Fibronectin
(§2) This assay is used to test the selective ability of a test compound to antagonize the interaction of a cell bound form of LFA-1 with ICAM-1. The assay uses a human T cell line, SKW3 cells which express CD18, CD11a and other integrins not related to CD18, CD11a and which can be “activated” by phorbol esters. Phorbol esters enhance the affinity of CD18, CD11a for ICAM-1.
(§3) This same lymphocyte line, SKW3, also adheres to fibronectin in the presence of phorbol esters. This adhesion is mediated by membrane proteins independent of the LFA-1/ICAM-1 interaction. The SKW3 cells express another integrin, VLA4, which is the receptor for fibronectin. Therefore, as a preliminary indication of the selectivity of a test compounds to interfere with Leukointegrin/CAM interactions but not other integrin-ligand binding events, a compound can be tested for its ability to antagonize cell bound fibronectin receptor in its interaction with purified fibronectin. Compounds that inhibit this fibronectin adhesion are not specific antagonists of the CD18, CD11a/ICAM-1 binding.
(§4) Description of Assay Protocol:
(§5) Ninety-six well plates are coated with either sICAM-1(40 μg/mL) or fibronectin (100 μg/mL) in Diluting buffer for 1 h at room temperature. Added to the wells are 100 μL of the appropriately diluted test compound or 100 μL of RPMI with 15% fetal bovine serum as a control. SKW3 cells, which express CD18, CD11a and VLA4 (Dustin, M.; et al., J. Exp. Med. 1987, 165, 672-692) are washed and suspended to a concentration of 10^6 cells/mL in RPMI with 15% fetal bovine serum. Immediately before adding the cells to the wells, cells are stimulated with the phorbol ester 12-myristate 13-acetate (PMA) for a final concentration of […]. 100 μL of cells are then added to the wells resulting in a final concentration of […]. The plates are incubated for 2 h at 37° C. Unbound or loosely bound cells are gently washed away with RPMI.
(§6) Data are reported as the concentration or concentration range (in μM) at which 50% of binding is inhibited.

[4] = tested on: cell bound fibronectin receptor (VLA4) with fibronectin, SKW3 cells; assay: Inhibition of SKW3 cell binding to fibronectin (selectivity counter-assay); type: cell-based, human; settings: for IC50: read-out: Assay to Detect SKW3 Cells Binding to FIBRONECTIN IC50
From the text: as §1, §2, §3, §4, §5, §6

[5] = values marked e approximated from incomplete dose-response curve
[6] = Homo sapiens, SKW3, values marked c: no inhibition observed up to highest dose
[7] = values marked c: no inhibition observed up to highest dose

T1 sequence (P20701 26-1170): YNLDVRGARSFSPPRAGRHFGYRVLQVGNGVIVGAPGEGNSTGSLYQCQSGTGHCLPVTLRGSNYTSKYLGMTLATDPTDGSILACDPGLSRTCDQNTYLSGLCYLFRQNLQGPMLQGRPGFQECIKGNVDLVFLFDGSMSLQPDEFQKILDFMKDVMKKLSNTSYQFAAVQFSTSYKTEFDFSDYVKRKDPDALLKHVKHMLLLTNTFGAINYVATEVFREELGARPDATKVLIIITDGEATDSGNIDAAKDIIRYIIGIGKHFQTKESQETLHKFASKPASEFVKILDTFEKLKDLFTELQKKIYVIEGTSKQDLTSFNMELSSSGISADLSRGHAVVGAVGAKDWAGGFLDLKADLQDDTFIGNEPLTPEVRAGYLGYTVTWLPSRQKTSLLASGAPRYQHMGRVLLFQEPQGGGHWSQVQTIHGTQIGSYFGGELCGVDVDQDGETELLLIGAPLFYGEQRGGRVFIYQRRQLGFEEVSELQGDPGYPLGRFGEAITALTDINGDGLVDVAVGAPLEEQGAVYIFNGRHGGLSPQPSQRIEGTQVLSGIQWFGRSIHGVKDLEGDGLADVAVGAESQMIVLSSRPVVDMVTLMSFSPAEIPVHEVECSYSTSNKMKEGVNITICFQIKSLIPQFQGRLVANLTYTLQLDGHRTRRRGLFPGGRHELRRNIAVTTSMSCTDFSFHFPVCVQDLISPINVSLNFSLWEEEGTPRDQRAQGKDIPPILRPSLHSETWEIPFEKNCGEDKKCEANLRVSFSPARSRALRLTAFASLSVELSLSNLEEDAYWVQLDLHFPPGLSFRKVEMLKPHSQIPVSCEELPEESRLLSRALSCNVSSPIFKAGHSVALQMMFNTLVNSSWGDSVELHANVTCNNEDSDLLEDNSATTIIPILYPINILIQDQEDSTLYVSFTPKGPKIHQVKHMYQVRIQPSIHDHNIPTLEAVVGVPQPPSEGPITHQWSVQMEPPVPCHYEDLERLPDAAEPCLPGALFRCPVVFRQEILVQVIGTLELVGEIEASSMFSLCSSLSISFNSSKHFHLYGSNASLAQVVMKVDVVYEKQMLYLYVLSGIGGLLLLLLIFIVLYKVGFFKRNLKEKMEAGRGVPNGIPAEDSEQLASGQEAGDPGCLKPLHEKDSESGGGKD
T1 sequence (P05107 23-769): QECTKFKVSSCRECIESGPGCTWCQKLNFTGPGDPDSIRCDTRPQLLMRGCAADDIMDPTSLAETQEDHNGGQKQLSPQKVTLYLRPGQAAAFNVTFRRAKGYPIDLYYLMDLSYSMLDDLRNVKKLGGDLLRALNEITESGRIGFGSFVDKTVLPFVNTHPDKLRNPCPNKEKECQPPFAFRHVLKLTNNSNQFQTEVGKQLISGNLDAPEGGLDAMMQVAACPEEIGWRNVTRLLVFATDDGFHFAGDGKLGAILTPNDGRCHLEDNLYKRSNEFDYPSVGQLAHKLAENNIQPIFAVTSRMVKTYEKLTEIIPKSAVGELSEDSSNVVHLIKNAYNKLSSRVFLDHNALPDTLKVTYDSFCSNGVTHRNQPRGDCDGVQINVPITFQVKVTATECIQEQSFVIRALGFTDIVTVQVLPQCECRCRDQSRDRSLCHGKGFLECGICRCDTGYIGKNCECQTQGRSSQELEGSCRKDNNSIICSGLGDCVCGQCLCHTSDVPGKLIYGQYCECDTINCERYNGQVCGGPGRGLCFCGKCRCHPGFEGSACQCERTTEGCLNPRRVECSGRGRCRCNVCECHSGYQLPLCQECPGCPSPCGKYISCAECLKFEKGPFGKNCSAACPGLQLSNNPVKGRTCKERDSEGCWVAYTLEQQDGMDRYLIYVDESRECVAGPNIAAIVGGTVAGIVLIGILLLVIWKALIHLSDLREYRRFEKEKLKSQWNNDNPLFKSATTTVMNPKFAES

SMILES	Cellular Toxicity Assay MTT LD50 [1]	Kd [2, 5]	IC50 [3, 6]	Assay to Detect SKW3 Cells Binding to FIBRONECTIN IC50 [4, 7]	other results
O=C1NC(Cc2cccc(O)c2)C(=O)N1c1cc(Cl)cc(Cl)c1 (stereo not shown) [Example 4]	250 to 500 µM	9320 nM	–	–	–
C[C@@]1(Cc2ccc(Br)cc2)C(=O)N(c2cc(Cl)cc(Cl)c2)C(=O)N1CCCCCS(=O)(=O)O [Example 251]	100 to 200 µM	–	–	–	IC50 ([3]; Homo sapiens, SKW3): < 500 nM; Kd [2]: 60 nM; Assay to Detect SKW3 Cells Binding to FIBRONECTIN IC50 ([4]; No inh = no inhibition observed up to highest dose, exact quantification not always possible due to intrinsic toxicity): No inh^c
C[C@@H](c1ccccc1)[C@@H]1C(=O)N(c2cc(Cl)cc(Cl)c2)C(=O)N1C [Example 86]	>500 µM	530 nM	19000 to 38000 nM	–	IC50 [4, 6]: > 75000 nM
O=C1NC(Cc2ccc([N+](=O)[O-])cc2)C(=O)N1c1cc(Cl)cc(Cl)c1 (stereo not shown) [Example 24]	>400 µM	850 nM	–	No inh^c	IC50 [3, 7]: > 60000 nM
O=C1NC(c2ccccc2)C(=O)N1c1cc(Cl)cc(Cl)c1 (stereo not shown) [Example 6]	250 to 500 µM	12800 nM	–	–	–
C[C@@]1(Cc2ccc([N+](=O)[O-])cc2)C(=O)N(c2cc(Cl)cc(Cl)c2)C(=O)N1S(C)(=O)=O [Example 136]	150 to 300 µM	190 nM	600 to 1000 nM	No inh^c	–
CN1C(=O)N(c2cc(Cl)cc(Cl)c2)C(=O)C1(C)Cc1ccc(Br)cc1 (stereo not shown) [Example 138]	250 to 500 µM	–	6000 nM	No inh^c	–
C[C@H](c1ccccc1)[C@@H]1C(=O)N(c2cc(Cl)cc(Cl)c2)C(=O)N1C [Example 85]	>500 µM	720 nM	19000 to 38000 nM	–	IC50 [4, 6]: > 75000 nM
O=C1NC(Cc2ccc(O)cc2)C(=O)N1c1cc(Cl)cc(Cl)c1 (stereo not shown) [Example 5]	250 to 500 µM	15400 nM	–	–	–
CC1(Cc2c[nH]c3ccccc23)NC(=O)N(c2cc(Cl)cc(Cl)c2)C1=O (stereo not shown) [Example 28]	100 to 200 µM	2590 nM	–	No inh^c	–
CN1C(=O)N(c2cc(C(F)(F)F)cc(C(F)(F)F)c2)C(=O)C1(C)Cc1ccccc1 (stereo not shown) [Example 88]	250 to 500 µM	410 nM	–	–	IC50 [3, 7]: 19000 to 38000 nM; IC50 [4, 7]: > 75000 nM
O=C1NC(Cc2ccccc2O)C(=O)N1c1cc(Cl)cc(Cl)c1 (stereo not shown) [Example 3]	125 to 250 µM	3000 nM	–	–	–
C[C@@]1(Cc2ccc(Br)cc2)C(=O)N(c2cc(Cl)cc(Cl)c2)C(=O)N1CCCCN [Example 241]	9 to 18 µM	–	–	–	IC50 ([3]; Homo sapiens, SKW3): 800 to 1600 nM; Kd [2]: 100 nM; IC50 ([4]; Homo sapiens, SKW3, No inh = no inhibition observed up to highest dose, exact quantification not always possible due to intrinsic toxicity): 13000 nM
CN1C(=O)N(c2cc(C(F)(F)F)cc(C(F)(F)F)c2)C(=O)[C@@]1(C)Cc1ccccc1 [Example 267]	250 µM	–	–	–	Kd [2]: 400 nM
C[C@H](c1ccccc1)[C@H]1NC(=O)N(c2cc(Cl)cc(Cl)c2)C1=O [Example 21]	125 to 250 µM	690 nM	< 16000 nM	–	IC50 [4, 6]: 125000 to 250000 nM
C[C@@]1(Cc2ccccc2)NC(=O)N(c2cc(Cl)cc(Cl)c2)C1=O [Example 2]	125 to 250 µM	14400 nM	> 100000 nM	–	IC50 [4, 6]: > 100000 nM
CN1C(=O)N(c2cc(C(F)(F)F)cc(C(F)(F)F)c2)C(=O)[C@]1(C)Cc1ccccc1 [Example 268]	250 to 500 µM	–	–	–	Kd [2]: 1590 nM
CN1C(=O)N(c2cc(Cl)cc(Cl)c2)C(=O)[C@@]1(C)Cc1ccc(-c2ccncc2)cc1 [Example 189]	63 µM	190 nM	600 to 1200 nM	No inh^c	–
CC1(Cc2ccc(O)cc2)NC(=O)N(c2cc(Cl)cc(Cl)c2)C1=O (stereo not shown) [Example 9]	250 to 500 µM	7870 nM	–	–	–
CC(=O)N1C(=O)N(c2cc(Cl)cc(Cl)c2)C(=O)C1(C)Cc1ccccc1 (stereo not shown) [Example 96]	100 to 200 µM	460 nM	50000 nM	No inh^c	–
